Measurements published in patent publication US20250195501A1, “CELL ENTRY-MODULATING AGENTS AND USES THEREFOR” (priority 2020, published 2025).
Like-named read-outs stand apart in the source and are kept apart here.

Columns and labels:
[1] = molecular target: T1, ACE2:RBD-mimic1 peptide interaction (Homo sapiens, UniProt Q9BYF1); test: Direct competition SPR: compound vs RBD-mimic1 peptide binding to human ACE2; settings: compound and RBD-mimic1 peptide flowed at 1 μM over human ACE2
T1 construct: purchased R&D Systems and Assay Matrix (ACE2); Mimotopes (peptide)
Method: Peptide alone, compound alone and the competition. Percentage competition is calculated by the reduction in final peptide binding divided by the difference between the peptide and the compound alone.
All SPR sensorgrams and results plots were analyzed with Biacore S200 Evaluation Software (GE Healthcare Life Sciences).

Vero-E6 cells = settings: for CC50: read-out: CC50 Mean ± SD, Vero-E6 cells, 24 h at 37° C., no virus, alamarBlue
SARS-CoV-2 = test: microbe, parasite or virus in culture; assay type: cell-based; settings: for IC50: read-out: IC50 Mean ± SD (SARS-CoV-2 infection); for SI (selectivity index, CC50/IC50): Vero-E6 cells

T1 sequence (Q9BYF1 18-740 limits assumed): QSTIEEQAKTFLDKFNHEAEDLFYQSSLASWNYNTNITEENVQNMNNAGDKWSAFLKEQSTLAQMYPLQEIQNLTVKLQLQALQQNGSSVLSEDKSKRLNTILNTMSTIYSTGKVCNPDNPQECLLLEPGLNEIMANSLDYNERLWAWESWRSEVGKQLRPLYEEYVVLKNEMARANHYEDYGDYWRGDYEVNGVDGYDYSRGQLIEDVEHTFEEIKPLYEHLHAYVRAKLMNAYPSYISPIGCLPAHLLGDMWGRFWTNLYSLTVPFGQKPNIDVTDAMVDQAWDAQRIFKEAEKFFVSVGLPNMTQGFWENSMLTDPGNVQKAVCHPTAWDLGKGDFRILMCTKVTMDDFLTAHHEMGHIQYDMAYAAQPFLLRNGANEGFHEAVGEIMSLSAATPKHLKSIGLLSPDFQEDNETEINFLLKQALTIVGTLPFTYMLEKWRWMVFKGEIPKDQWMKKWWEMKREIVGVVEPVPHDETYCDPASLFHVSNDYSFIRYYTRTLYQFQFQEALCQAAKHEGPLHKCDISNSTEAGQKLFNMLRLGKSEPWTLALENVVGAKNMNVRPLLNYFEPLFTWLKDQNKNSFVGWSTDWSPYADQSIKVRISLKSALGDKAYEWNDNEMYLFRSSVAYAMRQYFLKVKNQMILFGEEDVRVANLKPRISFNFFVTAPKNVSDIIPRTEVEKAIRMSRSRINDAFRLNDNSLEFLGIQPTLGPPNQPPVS

CC1(C)CCC(CN2CCN(c3ccc(C(=O)NS(=O)(=O)c4ccc(NCC5CCOCC5)c([N+](=O)[O-])c4)c(Oc4cnc5[nH]ccc5c4)c3)CC2)=C(c2ccc(Cl)cc2)C1 [Venetoclax]
1:1 Competition between compound vs RBD-mimic1 peptide @ 1 μM (block: Yes/Partial) [1]: Partial | toxicity toward Vero-E6 cells in the infection assay (Vero-E6 cells): toxicity was observed

Cc1ccc(C(=O)Nc2ccc(S(=O)(=O)O)c3cc(S(=O)(=O)O)cc(S(=O)(=O)O)c23)cc1NC(=O)c1cccc(NC(=O)Nc2cccc(C(=O)Nc3cc(C(=O)Nc4ccc(S(=O)(=O)O)c5cc(S(=O)(=O)O)cc(S(=O)(=O)O)c45)ccc3C)c2)c1 [Suramin]
IC50 (SARS-CoV-2; Severe acute respiratory syndrome coronavirus 2, Vero C1008, 24 h): 28.1 ± 1.2 µM | SI (selectivity index, CC50/IC50) (SARS-CoV-2): >21.6 | CC50 (Vero-E6 cells): > 1000 µM

COC[C@H]1C[C@@H](c2nc(-c3ccc4c(c3)COc3cc5c(ccc6nc([C@@H]7CC[C@H](C)N7C(=O)[C@@H](NC(=O)OC)C(C)C)[nH]c65)cc3-4)c[nH]2)N(C(=O)[C@H](NC(=O)OC)c2ccccc2)C1 [Velpatasvir]
1:1 Competition between compound vs RBD-mimic1 peptide @ 1 μM (block: Yes/Partial) [1]: Partial | toxicity toward Vero-E6 cells in the infection assay (Vero-E6 cells): toxicity was observed

Ledipasvir
1:1 Competition between compound vs RBD-mimic1 peptide @ 1 μM (block: Yes/Partial) [1]: Partial | toxicity toward Vero-E6 cells in the infection assay (Vero-E6 cells): toxicity was observed

CCc1c2c(nc3ccc(OC(=O)N4CCC(N5CCCCC5)CC4)cc13)-c1cc3c(c(=O)n1C2)COC(=O)[C@]3(O)CC [Irinotecan]
1:1 Competition between compound vs RBD-mimic1 peptide @ 1 μM (block: Yes/Partial) [1]: Yes | 1:1 Competition between compound vs RBD-mimic1 peptide @ 1 μM (percentage competition) [1]: (100% ± 6.36) | toxicity toward Vero-E6 cells in the infection assay (Vero-E6 cells): toxicity was observed

Cc1cc(-c2ccc(/N=N/c3ccc4c(S(=O)(=O)[O-])cc(S(=O)(=O)[O-])c(N)c4c3O)c(C)c2)ccc1/N=N/c1ccc2c(S(=O)(=O)[O-])cc(S(=O)(=O)[O-])c(N)c2c1O.[Na+].[Na+].[Na+].[Na+] [Evans Blue]
1:1 Competition between compound vs RBD-mimic1 peptide @ 1 μM (block: Yes/Partial) [1]: completely block and Yes | 1:1 Competition between compound vs RBD-mimic1 peptide @ 1 μM (percentage competition) [1]: ~100% | SI (selectivity index, CC50/IC50) (SARS-CoV-2): >35.6 | IC50 (SARS-CoV-2): 28.1 ± 1.2 µM | toxicity toward Vero-E6 cells in the infection assay (Vero-E6 cells): low toxicity | CC50 (Vero-E6 cells): > 1000 µM
